Experimental data as given in patent US9315522B2, “Antibacterial compounds” (JANSSEN SCIENCES IRELAND UC, priority 2012, dated 2016).
Values after ≈ are worked out from the molar mass of the structure shown. Values joined by “and” are separate entries in the source; they are usually repeats but may differ in a detail not shown here. Identical values can stand only once.

Test system: Staphylococcus aureus ATCC 29213
Assay: Antibacterial susceptibility testing, IC90 determination (STA)
Format: cell-based
Conditions: Staphylococcus aureus, ATCC29213, Staphylococcus aureus ATCC 29213, broth microdilution, resazurin; read-out: STA (361.159) IC90
Description: (§1) The following bacteria were used: Staphylococcus aureus ATCC 29213, methicillin-resistant Staphylococcus aureus (MRSA) ATCC 700788 and Escherichia coli ATCC 35218. The bacteria used in this study were grown overnight in flasks containing 100 ml Mueller-Hinton broth (Difco cat. nr. 0757-17) in sterile de-ionized water, with shaking, at 37° C. Stocks were store at −70° C. until use.
(§2) Bacteria were incubated on a tryptic soy agar plate containing 5% sheep blood (Becton Dickinson cat. nr. 254053) for 18-24 hours at 35° C. in aerobic conditions (first passage). For the second passage, fresh Mueller-Hinton broth is inoculated with 5-10 colonies and grown overnight at 35° C. until turbidity (reaching log-phase) in aerobic conditions is reached. The bacterial suspension is then adjusted to 0.5 McFarland density and further diluted 1:100 in Mueller Hinton broth medium. This is used as inoculum.
The result(s) are depicted the table below (for STA ATCC 29213).
(§3) MIC assays were performed by the broth microdilution method in a 96-well format (flat-bottom microtitre plates) with a final volume of 0.1 ml Mueller Hinton broth containing two-fold serial dilutions of compounds and inoculated with 5×10^5 CFU/ml of bacteria (standard inoculum size according to CLSI guidelines). Inhibitors are typically varied over the range of 63 to 0.49 μM. The final DMSO concentration in the assay was 1.25% (maximum tolerable DMSO concentration=6%). In the assays where the effect of human serum on the activity of the compounds against S. aureus was tested, human serum was added at a final concentration of 10%. The plates were incubated at 35° C. for 16-20 hours. At the end of incubation the bacterial growth was quantified fluorometrically. For this, resazurin was added to all wells and the plates were re-incubated. The incubation time is dependent on the type of bacteria. A change in color from blue to pink indicated the growth of bacteria. The fluorescence was read in computer-controlled fluorometer (Fluoroskan Ascent FL, Labsystems) at an excitation wavelength 540 nm and an emission wavelength of 590 nm. The % growth inhibition achieved by the compounds was calculated according to standard methods. The IC90 (expressed in μg/ml) was defined as the 90% inhibitory concentration for bacterial growth. A panel of reference compounds were simultaneously tested for QC approval.

Compound | IC90 [µg/mL]
O=C(Nc1ccc(/C=C/C(=O)N2CC3C=C(c4ccccc4)CC3C2)cn1)c1cccnc1 (stereo not drawn) [Cpd. No. 3] | 0.21 (≈ 0.481 µM)
Cc1cncc(C(=O)Nc2ccc(/C=C/C(=O)N3CC4C=C(c5ccccc5)CC4C3)cn2)c1 (stereo not drawn) [compound 1] | 0.17 (≈ 0.377 µM)
O=C(Nc1ccc(/C=C/C(=O)N2CC3C=C(c4ccccc4)CC3C2)cn1)c1ccoc1 (stereo not drawn) [compound 2] | 0.21 (≈ 0.494 µM)
Cc1cncc(C(=O)Nc2ccc(/C=C/C(=O)N3CC4C=C(c5ccsc5)CC4C3)cn2)c1 (stereo not drawn) [compound 5] | < 0.22
Cc1cncc(C(=O)Nc2ccc(/C=C/C(=O)N3CC4C=C(c5ccncc5)CC4C3)cn2)c1 (stereo not drawn) [compound 8] | 0.316 (≈ 0.7 µM)
CC(=O)Nc1ccc(/C=C/C(=O)N2CC3C=C(c4ccccc4)CC3C2)cn1 (stereo not drawn) [compound 10] | 0.34 (≈ 0.91 µM)

Target: T1, S. aureus ATCC 29213 FabI (Staphylococcus aureus, UniProt Q6GI75)
T1 sequence (Q6GI75 1-256): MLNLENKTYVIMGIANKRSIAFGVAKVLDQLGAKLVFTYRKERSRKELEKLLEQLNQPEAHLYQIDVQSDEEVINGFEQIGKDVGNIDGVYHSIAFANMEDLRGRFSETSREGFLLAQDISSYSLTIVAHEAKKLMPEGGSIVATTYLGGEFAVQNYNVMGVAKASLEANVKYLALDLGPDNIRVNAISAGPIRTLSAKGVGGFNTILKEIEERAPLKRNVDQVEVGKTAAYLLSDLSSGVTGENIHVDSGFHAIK
Assay: Staphylococcus aureus FabI enzyme inhibition assay
Format: biochemical
Conditions: read-out: FabI (300.235) IC50 (converted)
Description: Y.1 FabI Enzyme Inhibition: Staphylococcus aureus FabI Enzyme Inhibition Assay
FabI enzyme inhibition assays were carried out in half-area, 384-well microtitre plates. Compounds were evaluated in 40-μl assay mixtures containing 100 mM NaADA, pH 6.5 (ADA=N-[2-acetamido]-2iminodiacetic acid), 250 μM crotonoyl-CoA, 625 μM NADH and 50 μg/ml S. aureus ATCC 29213 FabI. Inhibitors were typically varied over the range of 50 to 0.39 μM. The reaction mixtures were incubated for 30 minutes at room temperature and the reaction was stopped by adding 200 mM Tris buffer (pH 9.0) to create a pH-shift. The consumption of NADH was monitored by measuring the change in absorbance at […]. By comparing sample readings to those of negative (absence of compound) and positive (absence of enzyme) controls, the percent inhibition of enzymatic activity of the compounds was determined A best-fit curve is fitted by a minimum of squares method. From this an IC50-value (expressed in μg/ml), resulting in 50% inhibition of enzymatic activity, was obtained.

Compound | IC50 [nM]
O=C(Nc1ccc(/C=C/C(=O)N2CC3C=C(c4ccccc4)CC3C2)cn1)c1cccnc1 (stereo not drawn) [Cpd. No. 3] | 1810
Cc1cncc(C(=O)Nc2ccc(/C=C/C(=O)N3CC4C=C(c5ccccc5)CC4C3)cn2)c1 (stereo not drawn) [compound 1] | 1820
O=C(Nc1ccc(/C=C/C(=O)N2CC3C=C(c4ccccc4)CC3C2)cn1)c1ccoc1 (stereo not drawn) [compound 2] | 7590
Cc1cncc(C(=O)Nc2ccc(/C=C/C(=O)N3CC4C=C(c5ccsc5)CC4C3)cn2)c1 (stereo not drawn) [compound 5] | 1730
Cc1cncc(C(=O)Nc2ccc(/C=C/C(=O)N3CC4C=C(c5ccncc5)CC4C3)cn2)c1 (stereo not drawn) [compound 8] | 1240
CC(=O)Nc1ccc(/C=C/C(=O)N2CC3C=C(c4ccccc4)CC3C2)cn1 (stereo not drawn) [compound 10] | 1070

Test system: S. aureus
Assay: Antibacterial susceptibility testing, IC90 determination with 10% human serum (STA + 10% HS)
Format: cell-based, Staphylococcus aureus
Conditions: Staphylococcus aureus, human serum at final concentration of 10%, read-out: STA + 10% HS (361.169) IC90
Description: as §1, §2, §3
The results are depicted in the table(s) below (STA+10% HS).

Compound | IC90 [µg/mL]
O=C(Nc1ccc(/C=C/C(=O)N2CC3C=C(c4ccccc4)CC3C2)cn1)c1cccnc1 (stereo not drawn) [Cpd. No. 3] | 0.79
Cc1cncc(C(=O)Nc2ccc(/C=C/C(=O)N3CC4C=C(c5ccccc5)CC4C3)cn2)c1 (stereo not drawn) [compound 1] | 0.67
O=C(Nc1ccc(/C=C/C(=O)N2CC3C=C(c4ccccc4)CC3C2)cn1)c1ccoc1 (stereo not drawn) [compound 2] | 1.66
Cc1cncc(C(=O)Nc2ccc(/C=C/C(=O)N3CC4C=C(c5ccsc5)CC4C3)cn2)c1 (stereo not drawn) [compound 5] | 0.36
Cc1cncc(C(=O)Nc2ccc(/C=C/C(=O)N3CC4C=C(c5ccncc5)CC4C3)cn2)c1 (stereo not drawn) [compound 8] | 0.398
CC(=O)Nc1ccc(/C=C/C(=O)N2CC3C=C(c4ccccc4)CC3C2)cn1 (stereo not drawn) [compound 10] | 0.5

Test system: not given
Assay: not given
Conditions: not given

Compound | melting point
O=C(Nc1ccc(/C=C/C(=O)N2CC3C=C(c4ccccc4)CC3C2)cn1)c1cccnc1 (stereo not drawn) [Cpd. No. 3] | 238 °C
Cc1cncc(C(=O)Nc2ccc(/C=C/C(=O)N3CC4C=C(c5ccccc5)CC4C3)cn2)c1 (stereo not drawn) [compound 1] | 214 °C
O=C(Nc1ccc(/C=C/C(=O)N2CC3C=C(c4ccccc4)CC3C2)cn1)c1ccoc1 (stereo not drawn) [compound 2] | 202 °C
Cc1cncc(C(=O)Nc2ccc(/C=C/C(=O)N3CC4C=C(c5ccsc5)CC4C3)cn2)c1 (stereo not drawn) [compound 5] | 208.43 °C
Cc1cncc(C(=O)Nc2ccc(/C=C/C(=O)N3CC4C=C(c5ccncc5)CC4C3)cn2)c1 (stereo not drawn) [compound 8] | 202.82 °C
CC(=O)Nc1ccc(/C=C/C(=O)N2CC3C=C(c4ccccc4)CC3C2)cn1 (stereo not drawn) [compound 10] | 251 °C and 251.61 °C

Test system: not listed separately
Assay: Cytotoxicity MTT assay (HELAM)
Format: cell-based, Human
Conditions: human, HelaM cells, read-out: HELAM (222.125) CC50
Description: Cytotoxicity of the compounds was evaluated using the MTT assay. Human HelaM cells grown in 96-well plates were exposed to serial dilutions of the tested compounds (final volume of 0.2 ml) and incubated for 72 hours at 37° C. and 5% CO2. Inhibitors are typically varied over the range of 25 to 0.8 μM. The final DMSO concentration in the assay is 0.5%. MTT (3-(4,5-Dimethylthiazol-2-yl)-2,5-diphenyltetrazolium bromide, a tetrazole) was added and reduced to purple formazan only in living cells. Solubilization of the formazan crystals was achieved by adding 100 μl 2-propanol. Cell viability was determined by measuring the absorbance of the reduced formazan, giving a purple color, at 540 nm and 690 nm. The absorbance measured at 690 nm was automatically subtracted from the absorbance at 540 nm, to eliminate the effects of non-specific absorption. The percent cytotoxicity achieved by the compounds was calculated according to standard methods. Cytotoxicity is reported as CC50, the concentration that causes a 50% reduction in cell viability.
The results are depicted in the table(s) below (HELAM).

Compound | CC50 at 72 h [µg/mL]
O=C(Nc1ccc(/C=C/C(=O)N2CC3C=C(c4ccccc4)CC3C2)cn1)c1cccnc1 (stereo not drawn) [Cpd. No. 3] | 1.23 (≈ 2.82 µM)
Cc1cncc(C(=O)Nc2ccc(/C=C/C(=O)N3CC4C=C(c5ccccc5)CC4C3)cn2)c1 (stereo not drawn) [compound 1] | > 4.5
O=C(Nc1ccc(/C=C/C(=O)N2CC3C=C(c4ccccc4)CC3C2)cn1)c1ccoc1 (stereo not drawn) [compound 2] | 7.57 (≈ 17.8 µM)
Cc1cncc(C(=O)Nc2ccc(/C=C/C(=O)N3CC4C=C(c5ccsc5)CC4C3)cn2)c1 (stereo not drawn) [compound 5] | 10.1 (≈ 22.1 µM)
Cc1cncc(C(=O)Nc2ccc(/C=C/C(=O)N3CC4C=C(c5ccncc5)CC4C3)cn2)c1 (stereo not drawn) [compound 8] | > 11.3
CC(=O)Nc1ccc(/C=C/C(=O)N2CC3C=C(c4ccccc4)CC3C2)cn1 (stereo not drawn) [compound 10] | > 9.38
